Consider three molecules from ChEMBL document CHEMBL1201862, “PubChem BioAssay data set” (2004).

Experiment [1] in a line: A small molecule screen for inhibitors of the PhoP region in Salmonella typhi (5) using purified and synthesized compounds. [Related pubchem assays (depositor defined):AID1850, AID1864, AID1985, AID2252, AID2384, AID2612, AID2811, AID434995]. The format is functional.
Experiment [2] has as its system Streptococcus. The experiment is described as follows: Group A Streptococcus viability loss, dose response, counter-screen for streptokinase expression inhibitor project, luminescence, BacTiterGlo (AID 1915).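 Note: potency for reduction of bacterial viability or growth.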 The format is functional, organism-based. Background: The purpose of a counterscreen is to sort out artefacts and off-target activity.
For experiment [3], the target named is T1, Bcl-2-related protein A1 (Mus musculus, UniProt Q07440).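 Note: confirmatory dose–response counterscreen on Bfl-1, used to check hits from a UBC13 polyubiquitin inhibitor campaign.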
T1 sequence (Q07440 whole entry): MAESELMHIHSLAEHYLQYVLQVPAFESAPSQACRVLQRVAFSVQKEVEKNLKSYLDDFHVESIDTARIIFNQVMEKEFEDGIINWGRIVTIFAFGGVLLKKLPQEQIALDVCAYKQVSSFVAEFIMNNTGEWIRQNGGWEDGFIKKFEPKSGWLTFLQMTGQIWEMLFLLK
The format is functional.

The nature of experiment [4]: inhibitors of SNCA 5'UTR-driven reporter translation, confirmation, H4 neuroglioma cells, luminescence (AID 1988). The format is functional, cell-based.
Experiment [5] deals with T2, Ubiquitin-conjugating enzyme E2 N (Homo sapiens, UniProt P61088).
T2 sequence (P61088 whole entry): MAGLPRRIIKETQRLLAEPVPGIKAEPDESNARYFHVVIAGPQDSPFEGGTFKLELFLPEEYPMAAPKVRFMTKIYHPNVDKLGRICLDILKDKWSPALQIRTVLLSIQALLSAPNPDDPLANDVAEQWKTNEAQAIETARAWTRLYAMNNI
It counts as functional.

Experiment [6] deals with Nonstructural protein 1 (Influenza A virus, UniProt Q194T2). It counts as functional, Influenza A virus (A/California/07/2009(H1N1)).
Chain of Nonstructural protein 1 (Q194T2 whole entry): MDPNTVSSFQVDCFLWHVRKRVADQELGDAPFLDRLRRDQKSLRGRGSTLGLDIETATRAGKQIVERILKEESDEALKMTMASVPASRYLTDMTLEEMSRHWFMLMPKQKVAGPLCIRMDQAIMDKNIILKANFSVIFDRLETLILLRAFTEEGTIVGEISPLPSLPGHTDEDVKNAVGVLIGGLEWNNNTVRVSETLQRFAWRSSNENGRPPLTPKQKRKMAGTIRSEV
Experiment [7] concerns the target T3, Apoptotic protease-activating factor 1 (Homo sapiens, UniProt O14727).
T3 sequence (O14727 whole entry): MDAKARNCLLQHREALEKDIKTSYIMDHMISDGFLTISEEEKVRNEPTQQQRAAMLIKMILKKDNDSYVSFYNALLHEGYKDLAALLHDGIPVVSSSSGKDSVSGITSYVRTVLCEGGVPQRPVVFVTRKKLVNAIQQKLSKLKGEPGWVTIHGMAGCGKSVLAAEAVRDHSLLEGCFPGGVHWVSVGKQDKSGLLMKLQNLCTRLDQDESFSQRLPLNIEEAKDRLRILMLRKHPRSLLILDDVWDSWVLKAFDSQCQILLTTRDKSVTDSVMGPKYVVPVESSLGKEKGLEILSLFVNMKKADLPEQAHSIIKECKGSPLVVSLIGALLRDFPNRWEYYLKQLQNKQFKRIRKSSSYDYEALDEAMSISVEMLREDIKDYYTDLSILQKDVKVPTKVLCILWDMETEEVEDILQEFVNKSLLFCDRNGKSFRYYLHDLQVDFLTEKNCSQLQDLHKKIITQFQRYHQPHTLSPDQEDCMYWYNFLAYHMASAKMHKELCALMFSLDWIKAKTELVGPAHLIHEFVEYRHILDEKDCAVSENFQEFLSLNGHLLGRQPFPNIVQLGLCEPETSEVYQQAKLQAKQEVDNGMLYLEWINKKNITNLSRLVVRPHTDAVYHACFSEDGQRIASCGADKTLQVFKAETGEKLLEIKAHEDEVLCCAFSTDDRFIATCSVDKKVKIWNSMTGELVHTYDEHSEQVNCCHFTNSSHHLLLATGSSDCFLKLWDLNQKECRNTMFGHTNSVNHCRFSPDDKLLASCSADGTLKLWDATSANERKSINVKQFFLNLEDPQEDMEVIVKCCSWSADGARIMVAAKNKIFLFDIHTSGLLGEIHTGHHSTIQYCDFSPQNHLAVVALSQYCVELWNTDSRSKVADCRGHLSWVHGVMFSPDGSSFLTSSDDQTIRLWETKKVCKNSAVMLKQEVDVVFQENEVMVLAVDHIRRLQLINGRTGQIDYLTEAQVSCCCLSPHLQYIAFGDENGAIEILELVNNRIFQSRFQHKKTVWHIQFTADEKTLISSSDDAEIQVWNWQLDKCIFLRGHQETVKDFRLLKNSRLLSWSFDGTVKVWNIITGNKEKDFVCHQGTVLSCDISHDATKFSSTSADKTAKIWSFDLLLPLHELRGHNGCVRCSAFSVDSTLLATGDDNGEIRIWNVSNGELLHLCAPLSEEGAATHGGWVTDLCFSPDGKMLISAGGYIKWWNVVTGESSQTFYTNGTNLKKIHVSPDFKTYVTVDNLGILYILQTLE
The format is functional.

Experiment [8] is described as follows: inhibitors of firefly luciferase expression or activity, dose response, H4 neuroglioma cells, luminescence (AID 1990). The format is functional, cell-based.
Experiment [9] relates to Streptococcus sp. 'group A'. Briefly: growth inhibition of control SK(-) GAS strain, dose response, counter-screen for streptokinase expression inhibitor project, luminescence, kanamycin, BacTiterGlo, confirmation (AID 1900). The format is functional, organism-based.
A short description of experiment [10]: Luminescence Cell-Based Dose Response HTS to Identify Inhibitors of 5'UTR Stem-Loop Driven Prion Protein mRNA Translation in H4 Neuroglioblastoma Cells. [Related pubchem assays: 1827 (Project Summary), 1813 (Primary HTS)]. The format is functional.
Experiment [11] has as its target T2, Ubiquitin-conjugating enzyme E2 N. The format is functional. The source holds these as a separate data set.
In experiment [12] the target is T4, Cannabinoid receptor 1 (Homo sapiens, UniProt P21554). Briefly: SAR analysis of agonists of the Cannabinoid Receptor 1 using an Image-Based Assay - Set 4. [Related pubchem assays (depositor defined):AID2013, AID2026]. It counts as functional.
T4 sequence (P21554 whole entry): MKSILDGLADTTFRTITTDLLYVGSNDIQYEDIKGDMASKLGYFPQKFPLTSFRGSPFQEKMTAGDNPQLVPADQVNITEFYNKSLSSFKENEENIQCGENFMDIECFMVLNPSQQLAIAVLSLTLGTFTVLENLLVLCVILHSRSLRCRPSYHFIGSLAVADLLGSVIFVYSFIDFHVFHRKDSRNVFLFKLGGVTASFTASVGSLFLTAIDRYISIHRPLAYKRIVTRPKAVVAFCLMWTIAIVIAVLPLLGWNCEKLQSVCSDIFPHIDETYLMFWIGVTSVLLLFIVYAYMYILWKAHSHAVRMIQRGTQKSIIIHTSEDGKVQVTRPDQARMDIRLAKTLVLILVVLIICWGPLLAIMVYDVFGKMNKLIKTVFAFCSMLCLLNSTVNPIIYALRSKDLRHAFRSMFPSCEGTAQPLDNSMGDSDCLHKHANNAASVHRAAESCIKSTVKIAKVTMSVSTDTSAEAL
The target in experiment [13] is T5, Cannabinoid receptor 2 (Homo sapiens, UniProt P34972). Briefly: SAR analysis of agonists of the Cannabinoid Receptor 2 using an Image-Based Assay - Set 3. [Related pubchem assays (depositor defined):AID2013, AID2026]. It counts as functional.
T5 sequence (P34972 whole entry): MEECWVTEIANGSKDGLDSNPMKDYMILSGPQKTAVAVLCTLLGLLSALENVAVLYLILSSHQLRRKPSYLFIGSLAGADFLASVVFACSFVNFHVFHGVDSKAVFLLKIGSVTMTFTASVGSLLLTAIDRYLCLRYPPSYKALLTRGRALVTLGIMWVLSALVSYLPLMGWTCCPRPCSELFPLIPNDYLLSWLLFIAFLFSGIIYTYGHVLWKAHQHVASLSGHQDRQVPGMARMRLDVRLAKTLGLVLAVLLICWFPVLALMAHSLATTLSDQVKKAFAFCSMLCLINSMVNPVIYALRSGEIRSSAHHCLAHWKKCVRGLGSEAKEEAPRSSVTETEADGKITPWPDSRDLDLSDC
Experiment [14] deals with T5, Cannabinoid receptor 2. The experiment is described as follows: SAR analysis of antagonists of the Cannabinoid Receptor 2 using an Image-Based Assay - Set 3. [Related pubchem assays (depositor defined):AID2013, AID2026]. The format is functional.
Experiment [15] has as its target T6, G-protein coupled receptor 35 (Homo sapiens, UniProt Q9HC97). Briefly: SAR analysis of Antagonists of the GPR35 Receptor using an Image-Based Assay - Set 6. [Related pubchem assays (depositor defined):AID2013, AID2026]. The format is functional.
Experiment [16] deals with T6, G-protein coupled receptor 35. Briefly: SAR analysis of Agonists of the GPR35 Receptor using an Image-Based Assay - Set 4. [Related pubchem assays (depositor defined):AID2013, AID2026]. The format is functional.
In experiment [17] the target is G-protein coupled receptor 55 (Homo sapiens, UniProt Q9Y2T6). Briefly: SAR Analysis of Selective Antagonists of GPR55 using an Image-Based Assay - Set 4. [Related pubchem assays (depositor defined):AID2013, AID2026]. The format is functional.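 Note: antagonism of response to 5 µM lysophosphatidylinositol agonist.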
Chain of G-protein coupled receptor 55 (Q9Y2T6 whole entry): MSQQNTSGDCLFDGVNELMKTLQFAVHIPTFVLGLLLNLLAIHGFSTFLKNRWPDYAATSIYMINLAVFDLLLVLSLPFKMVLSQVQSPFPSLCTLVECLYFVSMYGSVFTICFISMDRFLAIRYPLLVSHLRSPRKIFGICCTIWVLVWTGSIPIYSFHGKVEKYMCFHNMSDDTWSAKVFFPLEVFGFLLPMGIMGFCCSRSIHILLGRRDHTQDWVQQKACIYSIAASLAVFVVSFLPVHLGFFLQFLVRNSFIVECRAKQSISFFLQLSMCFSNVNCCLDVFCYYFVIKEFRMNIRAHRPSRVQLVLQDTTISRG
The target of experiment [18] is T4, Cannabinoid receptor 1. The experiment is described as follows: SAR analysis of antagonists of the Cannabinoid Receptor 1 using an Image-Based Assay - Set 4. [Related pubchem assays (depositor defined):AID2013, AID2026]. The format is functional.

Calls of active or inactive are those of the source.

T6 sequence (Q9HC97 whole entry): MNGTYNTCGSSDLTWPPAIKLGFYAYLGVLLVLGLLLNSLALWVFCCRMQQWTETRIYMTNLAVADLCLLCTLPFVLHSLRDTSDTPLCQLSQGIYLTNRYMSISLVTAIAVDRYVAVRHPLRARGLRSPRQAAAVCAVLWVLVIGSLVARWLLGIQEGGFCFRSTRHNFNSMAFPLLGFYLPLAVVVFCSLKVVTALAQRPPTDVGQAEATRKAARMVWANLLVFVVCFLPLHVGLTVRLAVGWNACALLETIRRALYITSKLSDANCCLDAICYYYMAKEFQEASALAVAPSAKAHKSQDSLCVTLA

Regarding `O=C1C2=C(Nc3ccccc3SC2c2cccnc2)c2ccccc21` (stereo not drawn), the IC50 (commonly the point on the concentration scale where inhibition reaches its midpoint) in experiment [1] was > 150 µM (active).
With `N=C(N)N/N=C/c1ccc(OCc2ccccc2)c(OCc2ccccc2)c1`, the EC50 – broadly, the concentration giving half of the maximal effect – in experiment [2] was 8.86 µM (active); in experiment [4] it was 19.9 µM (active); in [8], 8.78 µM (active); in [9] it was 5.75 µM (active); in experiment [10], > 120 µM (not active). The IC50 was 16 µM (active) in experiment [3]; 5.05 µM (active) in experiment [5]; 49 µM (active) in experiment [6]; > 100 µM (inactive) in [7]; 6.15 µM (active) in [11].
For the molecule `Cc1ccc2nc(-c3ccccn3)cc(C(=O)Nc3ccc(S(=O)(=O)N4CCOCC4)cc3)c2c1`, the EC50 in experiment [12], in experiment [13] and in [16] was > 32 µM (inactive) throughout. Besides, the IC50 is > 32 µM (inactive) in experiment [14], > 32 µM (inactive) in experiment [15], > 32 µM (inactive) in [17] and 5.37 µM (active) in experiment [18].
